We go through four molecules from publication PMC6414531, “Contrasting in vitro and in vivo methanol oxidation activities of lanthanide-dependent alcohol dehydrogenases XoxF1 and ExaF from Methylobacterium extorquens AM1” (Scientific Reports, 2019).

In data set [1] the target is T1, XoxF1 MDH (XoxF1-La) (Methylorubrum extorquens, UniProt C5B120).
T1 construct: C-terminal hexahistidine tag with rTEV site, tag cleaved; 1:1 La3+ per protomer, PQQ-containing
T1 sequence (C5B120 22-601): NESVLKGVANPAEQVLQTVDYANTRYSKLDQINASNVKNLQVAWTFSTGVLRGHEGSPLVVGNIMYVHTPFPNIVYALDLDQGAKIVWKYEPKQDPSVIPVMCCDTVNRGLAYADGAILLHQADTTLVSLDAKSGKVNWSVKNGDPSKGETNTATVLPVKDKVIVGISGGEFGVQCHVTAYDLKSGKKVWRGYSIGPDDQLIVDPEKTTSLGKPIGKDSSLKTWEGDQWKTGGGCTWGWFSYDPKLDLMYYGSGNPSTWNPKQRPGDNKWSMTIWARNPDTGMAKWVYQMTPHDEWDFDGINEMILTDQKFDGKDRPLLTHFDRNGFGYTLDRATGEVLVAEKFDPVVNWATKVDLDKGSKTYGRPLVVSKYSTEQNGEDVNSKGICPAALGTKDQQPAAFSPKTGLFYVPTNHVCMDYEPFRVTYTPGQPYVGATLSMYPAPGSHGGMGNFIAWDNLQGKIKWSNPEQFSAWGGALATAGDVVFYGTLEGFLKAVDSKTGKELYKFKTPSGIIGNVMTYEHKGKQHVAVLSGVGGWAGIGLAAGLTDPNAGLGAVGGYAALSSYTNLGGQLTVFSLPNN
Description: UV-visible spectroscopy of purified enzyme. Format: binding. As to conditions: co-purified prosthetic group.

Data set [2] concerns the target T2, ExaF (ExaF-La, Ln-dependent ethanol dehydrogenase) (Methylorubrum extorquens, UniProt C5AXV8).
T2 construct: native enzyme in cell-free extract of MDH-3 mutant grown with methanol and La3+
T2 sequence (C5AXV8 27-587): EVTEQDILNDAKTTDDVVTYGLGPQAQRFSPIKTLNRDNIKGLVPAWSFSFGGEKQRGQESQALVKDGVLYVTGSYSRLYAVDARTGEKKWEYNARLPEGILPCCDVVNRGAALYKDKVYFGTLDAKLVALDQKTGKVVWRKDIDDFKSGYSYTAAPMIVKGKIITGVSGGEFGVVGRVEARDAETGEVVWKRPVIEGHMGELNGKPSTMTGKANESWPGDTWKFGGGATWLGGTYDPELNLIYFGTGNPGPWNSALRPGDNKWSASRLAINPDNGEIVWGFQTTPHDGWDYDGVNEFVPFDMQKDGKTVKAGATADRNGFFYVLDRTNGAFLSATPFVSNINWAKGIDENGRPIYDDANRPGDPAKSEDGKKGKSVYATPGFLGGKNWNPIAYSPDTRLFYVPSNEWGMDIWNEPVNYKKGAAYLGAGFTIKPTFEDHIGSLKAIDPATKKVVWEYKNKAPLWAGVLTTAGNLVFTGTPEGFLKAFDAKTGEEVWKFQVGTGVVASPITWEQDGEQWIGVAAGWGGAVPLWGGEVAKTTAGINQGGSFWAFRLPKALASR
The experiment in a line: PMS-mediated DCPIP reduction in cell-free extract. The format is biochemical. As to conditions: MDH-3 mutant strain (lacks MxaF, XoxF1, XoxF2), grown with methanol and La3+.

The target of data set [3] is T1, XoxF1 MDH (XoxF1-La). The experiment in a line: PMS-mediated DCPIP reduction at […] nm, Michaelis-Menten fit. The format is biochemical. As to conditions: La3+-loaded enzyme (1:1), PQQ; PMS/DCPIP as electron acceptors.
Substrate in data set [4]: CCO
The experiment in a line: purified protein. As to conditions: La3+-loaded enzyme (1:1), PQQ; PMS/DCPIP as electron acceptors.

Turning to `O=C(O)c1cc(C(=O)O)c2c(n1)C(=O)C(=O)c1cc(C(=O)O)[nH]c1-2` [PQQ], in data set [1], the molar ratio result is recorded as “PQQ was detected as a prosthetic group via UV-visible spectroscopy”.

As to `C=O` [formaldehyde], the specific activity result in data set [2] is reported as “confirming that ExaF can oxidize formaldehyde in vivo”. For the same molecule, the Km – broadly, the concentration of substrate that gives half-maximal velocity – in data set [3] is 0.096 ± 0.006 mM.

`CO` [methanol]: the Michaelis-Menten constant (Km) in data set [3] was determined as 0.044 ± 0.005 mM.

B1: XoxF1 MDH (XoxF1-La) (Methylorubrum extorquens AM1) (protein)
chain: NESVLKGVANPAEQVLQTVDYANTRYSKLDQINASNVKNLQVAWTFSTGVLRGHEGSPLVVGNIMYVHTPFPNIVYALDLDQGAKIVWKYEPKQDPSVIPVMCCDTVNRGLAYADGAILLHQADTTLVSLDAKSGKVNWSVKNGDPSKGETNTATVLPVKDKVIVGISGGEFGVQCHVTAYDLKSGKKVWRGYSIGPDDQLIVDPEKTTSLGKPIGKDSSLKTWEGDQWKTGGGCTWGWFSYDPKLDLMYYGSGNPSTWNPKQRPGDNKWSMTIWARNPDTGMAKWVYQMTPHDEWDFDGINEMILTDQKFDGKDRPLLTHFDRNGFGYTLDRATGEVLVAEKFDPVVNWATKVDLDKGSKTYGRPLVVSKYSTEQNGEDVNSKGICPAALGTKDQQPAAFSPKTGLFYVPTNHVCMDYEPFRVTYTPGQPYVGATLSMYPAPGSHGGMGNFIAWDNLQGKIKWSNPEQFSAWGGALATAGDVVFYGTLEGFLKAVDSKTGKELYKFKTPSGIIGNVMTYEHKGKQHVAVLSGVGGWAGIGLAAGLTDPNAGLGAVGGYAALSSYTNLGGQLTVFSLPNN
For B1, in data set [4], the Km was 0.067 ± 0.003 mM, the Vmax (usually the top rate of the reaction or transport when substrate is in excess) stood at 6.21 µmol/min/mg and the kcat/Km (commonly the turnover number divided by the Michaelis constant) came out at 194000 M⁻¹ s⁻¹.
